Experimental data published in patent US12227517B2, “Pyridazinyl-thiazolecarboxamide compound” (Astellas Pharma Inc., priority 2019, dated 2025).
Structures can show the parent of a compound that is named as a salt.

These compounds were tested against human recombinant DGK ξ (Homo sapiens (Human), UniProt Q13574) (assay: Evaluation of DGK ξ inhibitory effect (ADP-Glo Kinase Assay)).
Assay type: biochemical
Description: Test Example 1: Evaluation of DGK ξ Inhibitory Effect
The inhibitory effect of a test compound on human recombinant DGK ξ (Carna Biosciences, Inc., 12-410-20N) was examined by the following method in which detection is performed with ADP-Glo™ Kinase Assay (Promega Corporation).
To a 384-well plate (Greiner Bio-One Co., Ltd.), 3 μL of a […] dissolved in an assay buffer (40 mM Tris-HCl pH 7.5, 10 mM MgCl2, 1 mM dithiothreitol (DTT) and 0.1 mg/mL bovine serum albumin (BSA)) (90 ng/mL) was added, and 3 μL of the test compound diluted with the same assay buffer was added so that an intended final concentration was obtained. The mixture was left standing at room temperature for 15 minutes, 3 μL of a substrate (150 μM 1-oleoyl-2-acetyl-sn-glycerol (Sigma-Aldrich Co. LLC.), 480 μM phosphatidylserine (Avanti Polar Lipids, Inc.) and 150 μM UltraPure-ATP (attached to ADP-Glo)) was then added, and the mixture was left standing at room temperature for 30 minutes to react. Thereafter, 3 μL of an ADP-Glo Reagent was added, and the mixture was left standing at room temperature for 40 minutes to stop the enzyme reaction. Further, 6 μL of a Kinase-Detection Reagent was added, the mixture was left standing at room temperature for 30 minutes, and the luminescence was then measured using ARVO X3 (PerkinElmer, Inc.). The half maximal inhibitory concentration (IC50) was calculated by Sigmoid-Emax model non-linear regression analysis, where the signal value in solvent treatment was set to 0% inhibition and the signal value without addition of the DGK ξ enzyme was set to 100% inhibition. […] In the table, Ex represents the number of each Example described below. Also, in the table, compound C (cpd. C) represents the test compound of the Example 199 described in the international publication WO 2008/054702.

human recombinant DGK ξ, sequence (Q13574 whole entry): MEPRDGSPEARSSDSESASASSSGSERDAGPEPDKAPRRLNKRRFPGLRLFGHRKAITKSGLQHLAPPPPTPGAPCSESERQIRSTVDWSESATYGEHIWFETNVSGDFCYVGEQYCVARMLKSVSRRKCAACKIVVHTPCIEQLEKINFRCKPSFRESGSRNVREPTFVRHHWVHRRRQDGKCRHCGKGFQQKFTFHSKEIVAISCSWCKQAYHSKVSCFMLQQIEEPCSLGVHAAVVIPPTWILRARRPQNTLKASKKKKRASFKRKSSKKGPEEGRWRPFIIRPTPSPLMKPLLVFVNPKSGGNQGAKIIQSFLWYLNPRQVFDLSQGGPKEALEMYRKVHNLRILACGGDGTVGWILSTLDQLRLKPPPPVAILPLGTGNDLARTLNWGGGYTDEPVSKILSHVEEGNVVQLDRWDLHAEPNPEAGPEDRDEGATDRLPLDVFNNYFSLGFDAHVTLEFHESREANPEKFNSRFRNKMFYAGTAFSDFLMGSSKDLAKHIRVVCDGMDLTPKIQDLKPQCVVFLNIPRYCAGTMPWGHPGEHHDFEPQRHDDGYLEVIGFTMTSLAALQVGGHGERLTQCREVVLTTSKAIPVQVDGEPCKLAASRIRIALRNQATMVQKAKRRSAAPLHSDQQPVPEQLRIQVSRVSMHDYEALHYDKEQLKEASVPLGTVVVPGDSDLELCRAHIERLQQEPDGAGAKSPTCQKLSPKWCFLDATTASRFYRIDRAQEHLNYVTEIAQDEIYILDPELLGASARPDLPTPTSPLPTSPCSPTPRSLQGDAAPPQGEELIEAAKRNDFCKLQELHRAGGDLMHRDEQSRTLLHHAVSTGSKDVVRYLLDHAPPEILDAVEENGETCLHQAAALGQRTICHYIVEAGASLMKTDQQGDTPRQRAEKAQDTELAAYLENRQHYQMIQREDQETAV

Row | SMILES | IC50 [nM]
1 | CN1CCC2(CC1)CN(c1c(NC(=O)c3csc(-c4ccnnc4)n3)ccc(Oc3ccccc3)c1C(F)(F)F)CCO2 [Example 1, N-[2-(9-methyl-1-oxa-4,9-diazaspiro[5.5]undecan-4-yl)-4-phenoxy-3-(trifluoromethyl)phenyl]-2-(pyridazin-4-yl)-1,3-thiazole-4-carboxamide] | 3
2 | O=C(Nc1ccc(Oc2ccccc2)c(C(F)(F)F)c1C1=CCN(Cc2cc[nH]n2)CC1)c1csc(-c2ccnnc2)n1 [Example 2] | 53
3 | O=C(Nc1ccc(Oc2ccccc2)c(C(F)(F)F)c1N1CCOC2(CCNCC2)C1)c1csc(-c2ccnnc2)n1 [Example 12] | 17
4 | NC[C@@H]1CCCN(c2c(NC(=O)c3csc(-c4ccnnc4)n3)ccc(OC3CC3)c2C(F)(F)F)C1 [Example 13] | 13
5 | NC[C@@H]1CCCN(c2c(NC(=O)c3csc(-c4ccnnc4)n3)ccc(OC3CCCC3)c2C(F)(F)F)C1 [Example 15] | 7
6 | Cn1cc(Oc2ccc(NC(=O)c3csc(-c4ccnnc4)n3)c(N3CCC[C@@H](CN)C3)c2C(F)(F)F)cn1 [Example 16] | 41
7 | Cn1ccc(Oc2ccc(NC(=O)c3csc(-c4ccnnc4)n3)c(N3CCC[C@@H](CN)C3)c2C(F)(F)F)n1 [Example 17] | 13
8 | NC[C@@H]1CCCN(c2c(NC(=O)c3csc(-c4ccnnc4)n3)ccc(Nc3ccccc3)c2C(F)(F)F)C1 [Example 18] | 19
9 | NC[C@H]1CCCN1c1c(NC(=O)c2csc(-c3ccnnc3)n2)ccc(Oc2ccccc2F)c1C(F)(F)F [Example 19] | 15
10 | CNC[C@H]1CCCN1c1c(NC(=O)c2csc(-c3ccnnc3)n2)ccc(Oc2ccccc2F)c1C(F)(F)F [Example 20] | 44
11 | Cc1ccccc1Oc1ccc(NC(=O)c2csc(-c3ccnnc3)n2)c(N2CCC[C@@H](CN)C2)c1C(F)(F)F [Example 21] | 6
12 | NC[C@@H]1CN(c2c(NC(=O)c3csc(-c4ccnnc4)n3)ccc(Oc3ccccc3)c2C(F)(F)F)CCO1 [Example 25] | 42
13 | NC[C@H]1CN(c2c(NC(=O)c3csc(-c4ccnnc4)n3)ccc(Oc3ccccc3)c2C(F)(F)F)CCO1 [Example 27] | 90
14 | NC[C@@H]1CCCN(c2c(NC(=O)c3csc(-c4ccnnc4)n3)ccc(Oc3ccccc3Cl)c2C(F)(F)F)C1 [Example 35] | 2
15 | CNC[C@@H]1CCCN(c2c(NC(=O)c3csc(-c4ccnnc4)n3)ccc(Oc3ccccc3Cl)c2C(F)(F)F)C1 [Example 36] | 13
16 | CNC[C@H]1CCCN1c1c(NC(=O)c2csc(-c3ccnnc3)n2)ccc(Oc2ccccc2)c1C(F)(F)F [Example 37] | 26
17 | N#Cc1ccccc1Oc1ccc(NC(=O)c2csc(-c3ccnnc3)n2)c(N2CCC[C@@H](CN)C2)c1C(F)(F)F [Example 38] | 3
18 | NC[C@@H]1CCCN(c2c(NC(=O)c3csc(-c4ccnnc4)n3)ccc(Oc3ccccn3)c2C(F)(F)F)C1 [Example 39] | 7
19 | NC[C@@H]1CCCN(c2c(NC(=O)c3csc(-c4ccnnc4)n3)ccc(Oc3cccc(Cl)c3)c2C(F)(F)F)C1 [Example 40] | 50
20 | Cn1nccc1Oc1ccc(NC(=O)c2csc(-c3ccnnc3)n2)c(N2CCC[C@@H](CN)C2)c1C(F)(F)F [Example 44] | 19
21 | NCC[C@H]1CCCN1c1c(NC(=O)c2csc(-c3ccnnc3)n2)ccc(Oc2ccccc2)c1C(F)(F)F [Example 45] | 24
22 | NC[C@@H]1CCCN(c2c(NC(=O)c3csc(-c4ccnnc4)n3)ccc(N3CCCC3)c2C(F)(F)F)C1 [Example 47] | 147
23 | CCNC[C@@H]1CCCN(c2c(NC(=O)c3csc(-c4ccnnc4)n3)ccc(Oc3cccc(F)c3)c2C(F)(F)F)C1 [Example 52] | 23
24 | COCCNC[C@@H]1CCCN(c2c(NC(=O)c3csc(-c4ccnnc4)n3)ccc(Oc3cccc(F)c3)c2C(F)(F)F)C1 [Example 53] | 27
25 | CN(C)C[C@H]1CCCN(c2c(NC(=O)c3csc(-c4ccnnc4)n3)ccc(Oc3ccccc3)c2C(F)(F)F)C1 [Example 54, N-[2-{(3R)-3-[(dimethylamino)methyl]piperidin-1-yl}-4-phenoxy-3-(trifluoromethyl)phenyl]-2-(pyridazin-4-yl)-1,3-thiazole-4-carboxamide dihydrochloride] | 17
26 | CN(C)C[C@@H]1CCCN(c2c(NC(=O)c3csc(-c4ccnnc4)n3)ccc(Oc3ccccc3)c2C(F)(F)F)C1 [Example 55] | 99
27 | CN(C)C[C@@H]1CN(c2c(NC(=O)c3csc(-c4ccnnc4)n3)ccc(Oc3ccccc3)c2C(F)(F)F)CCO1 [Example 56] | 29
28 | O=C(Nc1ccc(Oc2ccccc2)c(C(F)(F)F)c1N1CCOC2(CCN(CCO)CC2)C1)c1csc(-c2ccnnc2)n1 [Example 60] | 3
29 | COCCN1CCC2(CCCN(c3c(NC(=O)c4csc(-c5ccnnc5)n4)ccc(Oc4ccccc4)c3C(F)(F)F)C2)CC1 [Example 61] | 3

Continued, values first:

Row | IC50 [nM] | SMILES
30 | 20 | O=C(Nc1ccc(OC2CC2)c(C(F)(F)F)c1C1=CCN(Cc2cc[nH]n2)CC1)c1csc(-c2ccnnc2)n1 [Example 3]
31 | 50 | O=C(Nc1ccc(OC2CCC2)c(F)c1C1=CCN(Cc2cc[nH]n2)CC1)c1csc(-c2ccnnc2)n1 [Example 4]
32 | 48 | O=C(Nc1cc(F)c(OC2CC2)c(F)c1C1=CCN(Cc2cc[nH]n2)CC1)c1csc(-c2ccnnc2)n1 [Example 5]
33 | 3 | CNC[C@H]1CN(c2c(NC(=O)c3csc(-c4ccnnc4)n3)ccc(Oc3ccccc3)c2C(F)(F)F)CCN1C [Example 6, N-[2-{(3S)-4-methyl-3-[(methylamino)methyl]piperazin-1-yl}-4-phenoxy-3-(trifluoromethyl)phenyl]-2-(pyridazin-4-yl)-1,3-thiazole-4-carboxamide]
34 | 110 | NCC[C@@H]1CCCN(c2c(NC(=O)c3csc(-c4ccnnc4)n3)ccc(Oc3ccccc3)c2C(F)(F)F)C1 [Example 7]
35 | 9 | CN1CCN(c2c(NC(=O)c3csc(-c4ccnnc4)n3)ccc(Oc3ccccc3)c2C(F)(F)F)C[C@@H]1CN [Example 8]
36 | 13 | NC[C@@H]1CCCN(c2c(NC(=O)c3csc(-c4ccnnc4)n3)ccc(OC3CCC3)c2C(F)(F)F)C1 [Example 14]
37 | 5 | NC[C@@H]1CCCN(c2c(NC(=O)c3csc(-c4ccnnc4)n3)ccc(Oc3c(F)cccc3F)c2C(F)(F)F)C1 [Example 22]
38 | 10 | NC[C@@H]1CCCN(c2c(NC(=O)c3csc(-c4ccnnc4)n3)ccc(Oc3c(F)cc(F)cc3F)c2C(F)(F)F)C1 [Example 23]
39 | 11 | NC[C@@H]1CCCN(c2c(NC(=O)c3csc(-c4ccnnc4)n3)cc(F)c(Oc3ccccc3)c2F)C1 [Example 24]
40 | 46 | CNC[C@@H]1CN(c2c(NC(=O)c3csc(-c4ccnnc4)n3)ccc(Oc3ccccc3)c2C(F)(F)F)CCO1 [Example 26]
41 | 42 | NC[C@@H]1CCCN(c2c(NC(=O)c3csc(-c4ccnnc4)n3)ccc(-c3ccccc3)c2C(F)(F)F)C1 [Example 28]
42 | 426 | CNC[C@H]1CN(c2c(NC(=O)c3csc(-c4ccnnc4)n3)ccc(Oc3ccccc3)c2C(F)(F)F)CCO1 [Example 29]
43 | 39 | NCC[C@@H]1CN(c2c(NC(=O)c3csc(-c4ccnnc4)n3)ccc(Oc3ccccc3)c2C(F)(F)F)CCO1 [Example 30]
44 | 31 | NC[C@H]1CCCN(c2c(NC(=O)c3csc(-c4ccnnc4)n3)ccc(Oc3ccccc3)c2C(F)(F)F)C1 [Example 32]
45 | 11 | NC[C@@H]1CCCN(c2c(NC(=O)c3csc(-c4ccnnc4)n3)ccc(Oc3ccc(F)cc3)c2C(F)(F)F)C1 [Example 41]
46 | 23 | O=C(Nc1ccc(Oc2ccccc2)c(C(F)(F)F)c1N1CCCC2(CCNCC2)C1)c1csc(-c2ccnnc2)n1 [Example 42]
47 | 36 | CNC[C@@H]1CCCN(c2c(NC(=O)c3csc(-c4ccnnc4)n3)ccc(Oc3ccc(F)cc3)c2C(F)(F)F)C1 [Example 43]
48 | 40 | CNCC[C@H]1CCCN1c1c(NC(=O)c2csc(-c3ccnnc3)n2)ccc(Oc2ccccc2)c1C(F)(F)F [Example 46]
49 | 10 | CNC[C@@H]1CCCN(c2c(NC(=O)c3csc(-c4ccnnc4)n3)ccc(Oc3ccccc3)c2C(F)(F)F)C1 [Example 49, N-[2-{(3S)-3-[(methylamino)methyl]piperidin-1-yl}-4-phenoxy-3-(trifluoromethyl)phenyl]-2-(pyridazin-4-yl)-1,3-thiazole-4-carboxamide]
50 | 23 | CNC[C@H]1CCCN(c2c(NC(=O)c3csc(-c4ccnnc4)n3)ccc(Oc3ccccc3)c2C(F)(F)F)C1 [Example 50]
51 | 16 | CNC[C@@H]1CCCN(c2c(NC(=O)c3csc(-c4ccnnc4)n3)ccc(Oc3cccc(F)c3)c2C(F)(F)F)C1 [Example 51]
52 | 240 | CN(C)C[C@@H]1CCCN(c2c(NC(=O)c3csc(-c4ccnnc4)n3)cc(F)c(Oc3ccccc3)c2F)C1 [Example 57]
53 | 144 | CN(C)CC[C@@H]1CN(c2c(NC(=O)c3csc(-c4ccnnc4)n3)ccc(Oc3ccccc3)c2C(F)(F)F)CCO1 [Example 58]
